These results are taken from patent publication US20240182893A1, “INHIBITION OF FGR REDUCES FIBROSIS” (UNIVERSITY OF PITTSBURGH-OF THE COMMONWEALTH SYSTEM OF …, priority 2021, published 2024).

Each structure is given as a SMILES string. Values joined by “and” are separate entries in the source; they are usually repeats but may differ in a detail not shown here. Equal entries are not always repeated. “Also recorded” adds a separate entry of the source.

The test system of assay [1] is target cell line (bottom layer). Briefly: Non-contact transwell coculture with sorted senescent cells from irradiated mouse lungs, profibrotic genes in target cell line. Type of assay: cell-based. As to conditions: FIG. 14. The source says: FIG. 14. Upregulation of profibrotic genes in target cells by irradiated mouse lung senescent cells. In a noncontact transwell co-culture system, filter separated (19) sorted irradiated red and irradiated non-red mouse lung cells plated on top layer, there is significant induction of Tgf-β. Collagen 1a1 and collagen 3 in target cell line (bottom layer).
To establish that irradiated tdTOMp16+ senescent cells induce profibrotic genes in other cells, a C57BL/6 target cell line and a noncontact transwell co-culture system were used (Ejaz A et al. Stem Cells. 2019, 37, 791-802) (FIG. 14). Using the tdTOMp16+ stromal cell line, significant induction by RIS red cells of collagen 1al, collagen 3, and TGF-β in C57/B6 target cells was observed. The induction was abrogated by the Fgr inhibitor TL02-59 (Mukherjee A et al. Cell Death Discovery, 2021, 7, 349). It was confirmed that the findings in stromal cells also occur in lung. Red and non-red cells from 20 Gy irradiated tdTOMp16 mouse lungs were tested.

In another assay the test system is other similar kinases. Briefly: Inhibition of other similar kinases. It is filed as biochemical.
Another assay concerns gfp+ bone marrow cells. Description: Transwell cell migration assay, gfp+ bone marrow cells towards senescent cells (3-micron filter). As to conditions: TL02-59 10 nM, 48 h, FIG. 45A, C, D. It is filed as cell-based, mouse. The procedure: FIG. 45A-FIG. 45F. […] FIG. 45A—The tdTOMp16+ cells either irradiated or non-irradiated were sorted by FACS for either tdTOM+ or tdTOM− cells, and each population was placed in the bottom chamber of each culture, well separated by a 3-micron filter. Gfp+ bone marrow cells were placed on the top chamber of each well and migration assay was carried out (3-micron membrane). The Fgr inhibitor TL02-59 (10 nM) (Shen K et al. Sci Signal 11(553): eaat5916, 2018) or RS 504393 (10 μM), a Ccl2 inhibitor, which is a CCR2 chemokine receptor antagonist, was added to cultures 24 h later. The migration of gfp+ bone marrow cells from the top chamber through the 3-micron filter to the bottom chamber was imaged and total gfp+ cells were counted. FIG. 45B—Image of gfp+ migrating cells through the filter at 24 h for each condition (×100). At 48 h, emigrated gfp+ cells in the bottom well were counted by FACS. After 48 h, migrating total. (FIG. 45C) gfp+ cells, and (FIG. 45D) gfp+ CD45+ cells were counted by FACS. […] Cell migration from the top wells to the bottom wells was evaluated by imaging and by (FIG. 45F) FACS analysis. (n=3, ****p=0.0001). p-Values were calculated by the t-test.
In vitro transwell experiments. […] The migration of gfp+ cells through the filter to the bottom compartment was measured by imaging the bottom wells and counting gfp+ cells relative to numbers of senescent TOM+ (red) cells. […]

For the next assay, the target named is Src-family kinase Fgr (Homo sapiens, UniProt P09769). As to conditions: cited from earlier work.
Chain of Src-family kinase Fgr (P09769 whole entry): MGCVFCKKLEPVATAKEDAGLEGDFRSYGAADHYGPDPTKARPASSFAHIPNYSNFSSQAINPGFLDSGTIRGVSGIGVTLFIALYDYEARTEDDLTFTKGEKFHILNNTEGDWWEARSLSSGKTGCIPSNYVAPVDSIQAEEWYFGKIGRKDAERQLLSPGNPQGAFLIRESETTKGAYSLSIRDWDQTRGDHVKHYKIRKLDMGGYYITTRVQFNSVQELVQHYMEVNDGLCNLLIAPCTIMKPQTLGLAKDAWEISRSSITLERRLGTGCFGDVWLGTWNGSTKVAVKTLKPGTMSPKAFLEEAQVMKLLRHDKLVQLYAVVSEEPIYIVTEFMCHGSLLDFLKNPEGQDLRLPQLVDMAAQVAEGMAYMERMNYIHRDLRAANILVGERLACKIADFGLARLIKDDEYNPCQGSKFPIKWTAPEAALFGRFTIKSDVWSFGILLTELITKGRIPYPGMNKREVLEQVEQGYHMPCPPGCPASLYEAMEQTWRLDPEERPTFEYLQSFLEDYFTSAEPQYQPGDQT

For `CCN1CCN(Cc2ccc(NC(=O)c3ccc(C)c(Oc4ncnc5cc(OC)c(OC)cc45)c3)cc2C(F)(F)F)CC1` [TL02-59], the “induction of Tgf-β, Collagen 1a1 and collagen 3 in target cells by irradiated mouse lung senescent cells” value in assay [1] (TL02-59 10 nM) is recorded as “can block senescent cell induction of these genes”. The “induction of collagen 3 by RIS red lung cells” value in assay [1] (cells from 20 Gy irradiated tdTOMp16 mouse lungs) is given as “reduced the induction of collagen 3”. The “fold greater dose required for inhibition of other similar kinases vs Fgr” value in the assay with other similar kinases was 10 to 100 fold and 10-to-100 fold. In addition, the “migration of gfp+ monocyte/macrophages towards senescent cells from irradiated tdTOMp16+ stromal cell line” value in the assay on gfp+ bone marrow cells is “abrogated monocyte/macrophages recruitment; also recorded: significantly reduced the migration; also recorded: inhibited; also recorded: prevents migration”. Also, at Src-family kinase Fgr, the primary target kinase result is “primary target”.
